Measured values: US8354419B2, “Benzimidazole analogues for the treatment or prevention of flavivirus infections” (Vertex Pharmaceuticals Incorporated, priority 2009, dated 2013)

System: HCV (Ib) RNA replication
Test: Cell-based luciferase reporter HCV (1b) RNA replication assay (replicon cell lines Huh-7 5.2 and ET)
Parameters: species or system Hepatitis C virus
Details: Hepatitis C virus, Huh-7, 96 h, HCV 1b genotype replicon, luciferase readout, 4 days incubation; read-out: EC50_1b
In short: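 Compounds were tested at eleven concentrations in duplicate over 4 days at 37 °C, 5% CO2. The cells were luciferase-reporter HCV 1b replicon lines 5.2 (NS5A adaptive mutation) or ET (NS4B mutation). Luminescence of lysates was measured, and IC50s were derived by nonlinear curve fitting.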

Row | SMILES | EC50
1 | COC(=O)N[C@H](C(=O)N1[C@@H](C)CC[C@H]1c1nc2ccc(-c3ccc(-c4ccc5nc([C@@H]6CC[C@H](C)N6C(=O)[C@@H](NC(=O)OC)C(C)C)[nH]c5c4)c4nsnc34)cc2[nH]1)C(C)C [Compound 317] | ≤ 5 nM
2 | COC(=O)N[C@H](C(=O)N1[C@@H](C)CC[C@H]1c1nc2cc(-c3ccc(-c4ccc5[nH]c([C@@H]6CC[C@H](C)N6C(=O)[C@@H](NC(=O)OC)C(C)C)nc5c4)c4c3OCO4)ccc2[nH]1)C(C)C [Compound 318] | ≤ 5 nM
3 | COC(=O)N[C@H](C(=O)N1[C@@H](C)CC[C@H]1c1nc2cc(-c3csc4c(-c5ccc6[nH]c([C@@H]7CC[C@H](C)N7C(=O)[C@@H](NC(=O)OC)C(C)C)nc6c5)csc34)ccc2[nH]1)C(C)C [Compound 319] | ≤ 5 nM
4 | COC(=O)N[C@H](C(=O)N1C[C@@H](C)C[C@H]1c1nc2cc(-c3ccc(-c4ccc5[nH]c([C@@H]6CC[C@H](C)N6C(=O)[C@@H](NC(=O)OC)C(C)C)nc5c4)cc3)ccc2[nH]1)C(C)C [Compound 320] | ≤ 5 nM
5 | COC(=O)N[C@H](C(=O)N1[C@@H](C)CC[C@H]1c1nc2cc(-c3cc4sc(-c5ccc6[nH]c([C@@H]7CC[C@H](C)N7C(=O)[C@@H](NC(=O)OC)C(C)C)nc6c5)cc4s3)ccc2[nH]1)C(C)C [Compound 321] | ≤ 5 nM
6 | COC(=O)N[C@H](C(=O)N1[C@@H](C)CC[C@H]1c1nc2ccc(-c3ccc(-c4ccc5nc([C@@H]6CC[C@H](C)N6C(=O)[C@@H](NC(=O)OC)C(C)C)[nH]c5c4)c(F)c3)cc2[nH]1)C(C)C [Compound 322] | ≤ 5 nM
7 | COC(=O)N[C@H](C(=O)N1C[C@@H](C)C[C@H]1c1nc2cc(-c3cc4sc(-c5ccc6nc([C@@H]7C[C@H](C)CN7C(=O)[C@@H](NC(=O)OC)C(C)C)n(C)c6c5)cc4s3)ccc2[nH]1)C(C)C [Compound 323] | ≤ 5 nM
8 | COC(=O)N[C@H](C(=O)N1[C@@H](C)CC[C@H]1c1nc2cc(C#CC#Cc3ccc4[nH]c([C@@H]5CC[C@H](C)N5C(=O)[C@@H](NC(=O)OC)C(C)C)nc4c3)ccc2[nH]1)C(C)C [Compound 324] | ≤ 5 nM
9 | COC(=O)N[C@H](C(=O)N1CC(C)(C)C[C@H]1c1nc2cc(-c3cc4sc(-c5ccc6[nH]c([C@@H]7CC(C)(C)CN7C(=O)[C@@H](NC(=O)OC)C(C)C)nc6c5)cc4s3)ccc2[nH]1)C(C)C [Compound 325] | ≤ 5 nM
10 | COC(=O)N[C@H](C(=O)N1CCC[C@H]1c1nc2cc(N3CCN(c4ccc5nc([C@@H]6CCCN6C(=O)[C@@H](NC(=O)OC)C(C)C)[nH]c5c4)[C@H](C)C3)ccc2[nH]1)C(C)C [Compound 326] | ≤ 5 nM
11 | COC(=O)N[C@H](C(=O)N1C[C@@H](C)C[C@H]1c1nc2cc(-c3ccc(-c4ccc5[nH]c([C@@H]6CC(C)(C)CN6C(=O)[C@@H](NC(=O)OC)C(C)C)nc5c4)cc3)ccc2[nH]1)C(C)C [Compound 327] | ≤ 5 nM
12 | COC(=O)N[C@H](C(=O)N1CCC[C@H]1c1nc2cc(N3CCCN(c4ccc5nc([C@@H]6CCCN6C(=O)[C@@H](NC(=O)OC)C(C)C)[nH]c5c4)CC3)ccc2[nH]1)C(C)C [Compound 328] | ≤ 5 nM
13 | COC(=O)N[C@H](C(=O)N1CCC[C@H]1c1nc2cc(N3CCN(c4ccc5[nH]c([C@@H]6CCCN6C(=O)[C@@H](NC(=O)OC)C(C)C)nc5c4)[C@@H](C)C3)ccc2[nH]1)C(C)C [Compound 329] | ≤ 5 nM
14 | COC(=O)N[C@H](C(=O)N1C[C@@H](C)C[C@H]1c1nc2cc(-c3ccc4cc(-c5ccc6[nH]c([C@@H]7C[C@H](C)CN7C(=O)[C@@H](NC(=O)OC)C(C)C)nc6c5)ccc4c3)ccc2[nH]1)C(C)C [Compound 330] | ≤ 5 nM
15 | COC(=O)N[C@H](C(=O)N1C[C@@H](C)C[C@H]1c1nc2cc(-c3sc4c(C)c(-c5ccc6[nH]c([C@@H]7C[C@H](C)CN7C(=O)[C@@H](NC(=O)OC)C(C)C)nc6c5)sc4c3C)ccc2[nH]1)C(C)C [Compound 331] | ≤ 5 nM
16 | COC(=O)N[C@H](C(=O)N1C[C@@H](C)C[C@H]1c1nc2cc(-c3cc4cc(-c5ccc6[nH]c([C@@H]7C[C@H](C)CN7C(=O)[C@@H](NC(=O)OC)C(C)C)nc6c5)sc4s3)ccc2[nH]1)C(C)C [Compound 332] | ≤ 5 nM
